Experimental data taken from US20080015186A1, “PHARMACEUTICAL CO[…] C[…] CANNABINOID RECEPTOR ANTAGONIST AND AN ANTIPSYCHOTIC” (SANOFI-AVENTIS, priority 2005, published 2008).

Test: Effect of rimonabant on the weight gain induced by treatment with risperidone (cumulative weight gain and feed consumption)
Assay type: in vivo
Details: female Wistar rats on fat-rich feed, risperidone 0.3 mg/kg i.p., rimonabant 1 mg/kg p.o. (or vehicle p.o.)
Protocol: Female Wistar rats, fed with a fat-rich feed for the three days preceding the treatment and during the treatment, are used.
Groups of 15 animals receive each day: • group 1: risperidone (0.3 mg/kg, i.p.) and the vehicle (p.o.); • group 2: risperidone (0.3 mg/kg, i.p.) and rimonabant (1 mg/kg, p.o.); • group 3: the two vehicles (i.p. and p.o.);
On the ninth day of the treatment, the cumulative weight gain over the nine days of treatment and the feed consumption on day 9 are measured.

Structure (SMILES): Cc1nc2n(c(=O)c1CCN1CCC(c3noc4cc(F)ccc34)CC1)CCCC2 [risperidone]
- Cumulative weight gain over the nine days of treatment (15/group, daily dosing for 9 days): 23.5 g ± 1.7
- Mean feed intake on the ninth day (day 9 of treatment): 15.0 g ± 0.7
- Number of rats/group (%) with a weight gain <20 g (nine days of treatment): 20%
- Number of rats/group (%) with a weight gain >20 g (nine days of treatment): 80%
